Test results as given in patent publication US20120029187A1, “HALOALKYLSULFONANILIDE DERIVATIVE” (Nissan Chemical Industries, Ltd., priority 2009, published 2012).

Assays:
Type in all cases: in vivo
barnyardgrass [1] = assay: Test Example 3: herbicidal effects in soil treatment; details: dose 3.2 g/a
Summary of the method: (§1)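 Seeds were sown in sterilized diluvial soil and covered with about 1.5 cm of soil. Compounds, formulated as emulsifiable concentrates and diluted with water, were sprayed evenly over the soil surface at set doses in g/a. Herbicidal effect was scored on a rating scale three weeks later.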

common chickweed [2] = assay: as above; details: dose 3.2 g/a
Summary of the method: as §1

posumbu knotweed [3] = assay: as above; details: dose 3.2 g/a
Summary of the method: as §1

velvetleaf [4] = assay: as above; details: dose 3.2 g/a
Summary of the method: as §1

Italian ryegrass [5] = assay: as above; details: dose 3.2 g/a
Summary of the method: as §1

common ragweed [6] = assay: as above; details: dose 3.2 g/a
Summary of the method: as §1

large crabgrass [7] = assay: as above; details: dose 3.2 g/a
Summary of the method: as §1

redroot pigweed [8] = assay: as above; details: dose 3.2 g/a
Summary of the method: as §1

giant foxtail [9] = assay: as above; details: dose 3.2 g/a
Summary of the method: as §1

beadstraw [10] = assay: as above; details: dose 3.2 g/a
Summary of the method: as §1

water foxtail [11] = assay: as above; details: dose 3.2 g/a
Summary of the method: as §1

common lambsquater [12] = assay: as above; details: dose 3.2 g/a
Summary of the method: as §1

transplanted rice = assay: Test Example 1: preemergence treatment under submerged conditions, effect on crop; details: dose 2.52 g/a
Summary of the method: (§2)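 Submerged conditions, 4 cm water over alluvial soil. Weeds sown and 2.5-leaf rice transplanted; compound applied preemergence to water surface, doses in g per are. Greenhouse, 25 to 30° C., three weeks, then 0–5 mortality rating.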

barnyardgrass [13] = assay: Test Example 1: herbicidal effects in preemergence treatment under submerged conditions; details: dose 2.52 g/a
Summary of the method: as §2

ducksalad [14] = assay: as above; details: dose 2.52 g/a
Summary of the method: as §2

bulrush [15] = assay: as above; details: dose 2.52 g/a
Summary of the method: as §2

barnyardgrass [16] = assay: Test Example 4: herbicidal effect in foliage treatment; details: dose 3.2 g/a
Summary of the method: (§3)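 Sowing in sterilized diluvial soil, ~1.5 cm cover; growth 14 d, 25–30° C greenhouse; foliar spray of water-diluted EC at predetermined g/a; scoring 3 wk later on graded scale.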

common chickweed [17] = assay: as above; details: dose 3.2 g/a
Summary of the method: as §3

posumbu knotweed [18] = assay: as above; details: dose 3.2 g/a
Summary of the method: as §3

velvetleaf [19] = assay: as above; details: dose 3.2 g/a
Summary of the method: as §3

Italian ryegrass [20] = assay: as above; details: dose 3.2 g/a
Summary of the method: as §3

common ragweed [21] = assay: as above; details: dose 3.2 g/a
Summary of the method: as §3

large crabgrass [22] = assay: as above; details: dose 3.2 g/a
Summary of the method: as §3

redroot pigweed [23] = assay: as above; details: dose 3.2 g/a
Summary of the method: as §3

giant foxtail [24] = assay: as above; details: dose 3.2 g/a
Summary of the method: as §3

beadstraw [25] = assay: as above; details: dose 3.2 g/a
Summary of the method: as §3

water foxtail [26] = assay: as above; details: dose 3.2 g/a
Summary of the method: as §3

common lambsquater [27] = assay: as above; details: dose 3.2 g/a
Summary of the method: as §3

barnyardgrass [28] = assay: Test Example 2: herbicidal effects during the vegetation period under submerged conditions; details: treatment during the vegetation period under submerged conditions; dose 2.52 g/a
Summary of the method: (§4)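 Barnyardgrass, bulrush and ducksalad were co-sown in alluvial soil flooded to 4 cm and grown in a greenhouse at 25 to 30° C. At the 1- or 2-leaf stage, water-diluted emulsifiable concentrates went onto the water surface at set doses (g/a). Herbicidal effect was scored three weeks later on a graded scale.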

ducksalad [29] = assay: as above; details: treatment during the vegetation period under submerged conditions; dose 2.52 g/a
Summary of the method: as §4

bulrush [30] = assay: as above; details: treatment during the vegetation period under submerged conditions; dose 2.52 g/a
Summary of the method: as §4

[31] = three weeks after the application

In the case of `CCC(=O)N(c1ccccc1CN1COC(C)(CC(F)(F)F)CC1=O)S(=O)(=O)C(F)(F)F` (centres unmarked) [II-52], the “A: barnyardgrass, herbicidal effect (evaluation scale 0-5)” value (barnyardgrass [1]) is reported as 5 (mortality of 90% or above (nearly complete death)), the “N: common chickweed, herbicidal effect (evaluation scale 0-5)” value (common chickweed [2]) is reported as 5 (mortality of 90% or above (nearly complete death)) and the “M: posumbu knotweed, herbicidal effect (evaluation scale 0-5)” value (posumbu knotweed [3]) is reported as 5 (mortality of 90% or above (nearly complete death)). The “I: velvetleaf, herbicidal effect (evaluation scale 0-5)” value (velvetleaf [4]) was 5 (mortality of 90% or above (nearly complete death)), the “H: Italian ryegrass, herbicidal effect (evaluation scale 0-5)” value (Italian ryegrass [5]) was 5 (mortality of 90% or above (nearly complete death)) and the “J: common ragweed, herbicidal effect (evaluation scale 0-5)” value (common ragweed [6]) was 5 (mortality of 90% or above (nearly complete death)). The “D: large crabgrass, herbicidal effect (evaluation scale 0-5)” value (large crabgrass [7]) was 5 (mortality of 90% or above (nearly complete death)), the “K: redroot pigweed, herbicidal effect (evaluation scale 0-5)” value (redroot pigweed [8]) was 1 (mortality of at least 5% and less than 20%) and the “E: giant foxtail, herbicidal effect (evaluation scale 0-5)” value (giant foxtail [9]) was 5 (mortality of 90% or above (nearly complete death)). The “O: beadstraw, herbicidal effect (evaluation scale 0-5)” value (beadstraw [10]) was 0 (mortality of less than 5% (almost ineffective)), the “G: water foxtail, herbicidal effect (evaluation scale 0-5)” value (water foxtail [11]) was 5 (mortality of 90% or above (nearly complete death)) and the “L: common lambsquater, herbicidal effect (evaluation scale 0-5)” value (common lambsquater [12]) was 4 (mortality of at least 70% and less than 90%). For the same molecule, the “a: transplanted rice, effect on crop (evaluation scale 0-5)” value (transplanted rice) was 0 (mortality of less than 5% (almost ineffective)), the “A: barnyardgrass, herbicidal effect (evaluation scale 0-5)” value (barnyardgrass [13]) was 5 (mortality of 90% or above (nearly complete death)) and the “C: ducksalad, herbicidal effect (evaluation scale 0-5)” value (“C: ducksalad, herbicidal effect” below) (ducksalad [14]) was 5 (mortality of 90% or above (nearly complete death)). For the same molecule, the “B: bulrush, herbicidal effect (evaluation scale 0-5)” value (“B: bulrush, herbicidal effect” for short) (bulrush [15]) was 5 (mortality of 90% or above (nearly complete death)), the “A: barnyardgrass, herbicidal effect” value (barnyardgrass [16]; three weeks after application) was 5 (mortality of 90% or above (nearly complete death)) and the “N: common chickweed, herbicidal effect” value (common chickweed [17]; three weeks after application) was 4 (mortality of at least 70% and less than 90%). For the same molecule, the “M: posumbu knotweed, herbicidal effect” value (posumbu knotweed [18]; three weeks after application) was 1 (mortality of at least 5% and less than 20%), the “I: velvetleaf, herbicidal effect” value (velvetleaf [19]; three weeks after application) was 3 (mortality of at least 40% and less than 70%) and the “H: Italian ryegrass, herbicidal effect” value (Italian ryegrass [20]; three weeks after application) was 4 (mortality of at least 70% and less than 90%). For the same molecule, the “J: common ragweed, herbicidal effect” value (common ragweed [21]; three weeks after application) was 3 (mortality of at least 40% and less than 70%), the “D: large crabgrass, herbicidal effect” value (large crabgrass [22]; three weeks after application) was 4 (mortality of at least 70% and less than 90%) and the “K: redroot pigweed, herbicidal effect” value (redroot pigweed [23]; three weeks after application) was 0 (mortality of less than 5% (almost ineffective)). For the same molecule, the “E: giant foxtail, herbicidal effect” value (giant foxtail [24]; three weeks after application) was 5 (mortality of 90% or above (nearly complete death)), the “O: beadstraw, herbicidal effect” value (beadstraw [25]; three weeks after application) was 5 (mortality of 90% or above (nearly complete death)) and the “G: water foxtail, herbicidal effect” value (water foxtail [26]; three weeks after application) was 5 (mortality of 90% or above (nearly complete death)). The “L: common lambsquater, herbicidal effect” value (common lambsquater [27]; three weeks after application) was 4 (mortality of at least 70% and less than 90%), the “A: barnyardgrass, herbicidal effect (evaluation scale 0-5)” value (barnyardgrass [28]) was 5 (mortality of 90% or above (nearly complete death)) and the “C: ducksalad, herbicidal effect” value (ducksalad [29]) was 5 (mortality of 90% or above (nearly complete death)). The “B: bulrush, herbicidal effect” value (bulrush [30]) was 5 (mortality of 90% or above (nearly complete death)).
In the case of `CC1CON(Cc2ccccc2NS(=O)(=O)C(F)(F)F)C(=O)O1` (centres unmarked) [III-3], the “herbicidal effect, A: barnyardgrass” value (barnyardgrass [1]) is reported as 5 (mortality of 90% or above (nearly complete death)), the “herbicidal effect, N: common chickweed” value (common chickweed [2]) is reported as 4 (mortality of at least 70% and less than 90%) and the “herbicidal effect, M: posumbu knotweed” value (posumbu knotweed [3]) is reported as 5 (mortality of 90% or above (nearly complete death)). The “herbicidal effect, I: velvetleaf” value (velvetleaf [4]) was 1 (mortality of at least 5% and less than 20%), the “herbicidal effect, H: Italian ryegrass” value (Italian ryegrass [5]) was 0 (mortality of less than 5% (almost ineffective)) and the “herbicidal effect, J: common ragweed” value (common ragweed [6]) was 5 (mortality of 90% or above (nearly complete death)). The “herbicidal effect, D: large crabgrass” value (large crabgrass [7]) was 5 (mortality of 90% or above (nearly complete death)), the “herbicidal effect, K: redroot pigweed” value (redroot pigweed [8]) was 0 (mortality of less than 5% (almost ineffective)) and the “herbicidal effect, E: giant foxtail” value (giant foxtail [9]) was 5 (mortality of 90% or above (nearly complete death)). The “herbicidal effect, O: beadstraw” value (beadstraw [10]) was 0 (mortality of less than 5% (almost ineffective)), the “herbicidal effect, G: water foxtail” value (water foxtail [11]) was 5 (mortality of 90% or above (nearly complete death)) and the “herbicidal effect, L: common lambsquater” value (common lambsquater [12]) was 0 (mortality of less than 5% (almost ineffective)). The “a: transplanted rice, effect on crop (evaluation scale 0-5)” value (transplanted rice) was 0 (mortality of less than 5% (almost ineffective)), the “A: barnyardgrass, herbicidal effect (evaluation scale 0-5)” value (barnyardgrass [13]) was 4 (mortality of at least 70% and less than 90%) and the “C: ducksalad, herbicidal effect” value (ducksalad [14]) was 5 (mortality of 90% or above (nearly complete death)). The “B: bulrush, herbicidal effect” value (bulrush [15]) was 5 (mortality of 90% or above (nearly complete death)), the “A: barnyardgrass, herbicidal effect” value (barnyardgrass [16]; [31]) was 5 (mortality of 90% or above (nearly complete death)) and the “N: common chickweed, herbicidal effect” value (common chickweed [17]; [31]) was 4 (mortality of at least 70% and less than 90%). The “M: posumbu knotweed, herbicidal effect” value (posumbu knotweed [18]; [31]) was 2 (mortality of at least 20% and less than 40%), the “I: velvetleaf, herbicidal effect” value (velvetleaf [19]; [31]) was 2 (mortality of at least 20% and less than 40%) and the “H: Italian ryegrass, herbicidal effect” value (Italian ryegrass [20]; [31]) was 0 (mortality of less than 5% (almost ineffective)). The “J: common ragweed, herbicidal effect” value (common ragweed [21]; [31]) was 4 (mortality of at least 70% and less than 90%), the “D: large crabgrass, herbicidal effect” value (large crabgrass [22]; [31]) was 4 (mortality of at least 70% and less than 90%) and the “K: redroot pigweed, herbicidal effect” value (redroot pigweed [23]; [31]) was 0 (mortality of less than 5% (almost ineffective)). For the same molecule, the “E: giant foxtail, herbicidal effect” value (giant foxtail [24]; [31]) was 4 (mortality of at least 70% and less than 90%), the “O: beadstraw, herbicidal effect” value (beadstraw [25]; [31]) was 4 (mortality of at least 70% and less than 90%) and the “G: water foxtail, herbicidal effect” value (water foxtail [26]; [31]) was 5 (mortality of 90% or above (nearly complete death)). For the same molecule, the “L: common lambsquater, herbicidal effect” value (common lambsquater [27]; [31]) was 0 (mortality of less than 5% (almost ineffective)), the “A: barnyardgrass, herbicidal effect (evaluation scale 0-5)” value (barnyardgrass [28]) was 5 (mortality of 90% or above (nearly complete death)) and the “C: ducksalad, herbicidal effect” value (ducksalad [29]) was 5 (mortality of 90% or above (nearly complete death)). For the same molecule, the “B: bulrush, herbicidal effect” value (bulrush [30]) was 5 (mortality of 90% or above (nearly complete death)).
